Experimental data taken from patent US11474098B2, “Drug target for preventing pathologic calcium overload in cardiomyocytes and methods of screening for same” (THE TRUSTEES OF COLUMBIA UNIVERSITY IN THE CITY OF NEW YORK, priority 2017, dated 2022).
Like-named read-outs stand apart in the source and are kept apart here.

How the values were obtained:
CaV1.2 channels [1] = test system: CaV1.2 channels
Protocol: Membrane currents from isolated mouse ventricular cardiomyocytes (O'Connell et al. 2007) were measured by the whole-cell patch-clamp method using a MultiClamp 700B amplifier and pCLAMP 10 software (Molecular Devices) as described (Yang et al. 2013). The pipette solution contained (in mM): 40 CsCl, 90 Cs gluconate, 10 BAPTA, 1 MgCl2, 4 Mg-ATP, 2 CaCl2, and 10 HEPES, adjusted to pH 7.2 with CsOH. After the isolated cardiomyocytes were adequately buffered with 10 mM BAPTA in the internal solution, the isolated cardiomyocytes were superfused with (in mM): 140 TEA-CI, 1.8 CaCl2, 1 MgCl2, 10 glucose, and 10 HEPES, adjusted to pH 7.4 with CsOH. For experiments in tsA-201 cells, TEA-CI was reduced to 130 mM, and BaCl2 (10 mM) was used instead of CaCl2. Pipette series resistances were usually <1 MΩ after 60% compensation. Leak currents and capacitance transients were subtracted by a P/4 protocol. Voltages were corrected for the liquid junction potential of −10 mV. To measure Ca^2+ peak currents, the cell membrane potential was held at −50 mV and stepped to +10 mV for 350 ms every 10 seconds. To evaluate the current-voltage (I-V) relationship for Ca^2+ currents, the same protocol was repeated with steps between −50 mV to +50 mV in 10 mV increments. All experiments were performed at room temperature, 22±1° C. The parameters of voltage-dependent activation were obtained using a modified Boltzmann distribution: I(V)=Gmax*(V−Erev)/[1+exp(Vmid−V)/Vc)], where I(V) is peak current, Gmax is maximal conductance, Erev is reversal potential, Vmid is the midpoint, and Vc is the slope factor.
We next determined the sensitivity of CaV1.2 channels containing either transgenic pWT α1C or AID-mutant α1C to PKA modulation.

CaV1.2 channels [2] = conditions: Katchman et al. 2017; cited from earlier work
CaV1.2 channels [3] = test: Whole-cell Ba2+ currents of adenovirus-infected cultured guinea pig ventricular myocytes; assay type: cell-based; conditions: control cells expressing GFP or YFP-tagged mutant (YWI/AAA) AID peptide; 1 μM forskolin
Text: Replication deficient adenoviral vectors expressing AID-YFP and AIDmut-YFP were generated using the AdEasy Adenoviral Vector System (Agilent Technologies) according to the manufacturer's instructions. Briefly, sequences for AID-YFP and AIDmut-YFP were PCR-amplified and cloned into pShuttle-CMV vector. After linearization with PmeI, shuttle vectors were electroporated into BJ5183 cells containing pAdEasy-1 viral plasmid. Positive recombinants were amplified, linearized with Pac I, and transfected into AD-293 cells using the calcium phosphate precipitation method. Transfected cells were monitored for development of adenoviral plaques, after which the cells were freeze-thawed and the lysate used to infect a 10-cm dish of 90% confluent HEK293 cells. Viral expansion and purification was carried out as previously described (Colecraft et al. 2002).
Adult guinea pig ventricular myocytes were isolated by enzymatic digestion using a Langendorff perfusion apparatuses, and cultured as previously described (Miriyala et al. 2008). […] Heart cells were infected 2-3 hours after plating with 5-20 μl of adenoviral vector stock (≅10^11-10^12 viral particles/ml).
Whole-cell recordings of virally-infected cultured guinea pig ventricular myocytes were conducted at room temperature as previously described (Miriyala et al. 2008; Xu et al. 2010). […]

[4] = test system: left ventricular contraction in isolated Langendorff-perfused hearts; test: Ex vivo cardiac contractility, Langendorff-perfused hearts with left ventricular balloon; parameters: species or system mouse; conditions: for increase in contractility in response to isoproterenol: native CaV1.2 first inhibited with nisoldipine; for increase in cardiac contractility: 200 nM isoproterenol with 300 nM nisoldipine, paced at 400 beats per minute
Protocol: Hearts from these mice are isolated and contractility is assessed by placing a balloon in the left ventricle.
The cannulated hearts were retrogradely perfused on a Langendorff system with a modified Krebs solution (118.5 mM NaCl, 25 mM NaHCO3, 4.7 mM KCl, 1.2 mM MgSO4, 1.2 mM KH2PO4, 11 mM glucose, 1.8 mM Ca^2+). Left ventricular pressure was measured using a balloon catheter connected to an APT-300 pressure transducer, which was connected to a Powerlab digitizer (ADInstruments). […] Peak LV pressure during the 3-minute period was used for the assessment of β-adrenergic agonist stimulation.
We then assessed the role of CaV1.2 modulation in β-adrenergic agonist-induced positive inotropy at the whole organ level by inserting a pressure-transduced balloon into the left ventricle of Langendorff-perfused transgenic mice hearts. This approach enabled measurement of cardiac contractility independent of vascular or systemic effects. Hearts were paced at 400 beats per minute to remove the potentially confounding effect of heart rate variability on contractility (Kushnir et al. 2014). […] By contrast, using the same experimental paradigm in hearts from β-less AID-mutant transgenic mice, the response to isoproterenol was nearly abolished, yielding an average increase in cardiac contractility of only 1.2-fold (FIG. 10H and FIG. 10I).

phospholamban = test: Immunoblot of phospholamban Ser16 phosphorylation in cardiomyocytes; assay type: cell-based, mouse; conditions: AID-mutant transgenic mice cardiomyocytes; 200 nM isoproterenol
Protocol: Cells were exposed to 200 nM isoproterenol. Protein extracts were size-fractionated on SDS-PAGE, transferred to nitrocellulose and blotted with anti-pSer16 phospho-specific antibody (upper blot), and anti-PLB antibody (lower blot). Representative of three similar experiments.
Cardiac lysates from 6-12-week-old doxycycline-fed transgenic mice were prepared from either whole hearts or isolated ventricular cardiomyocytes (Yang et al. 2013). Immunoprecipitations were performed in modified RIPA buffer consisting of 50 mM Tris HCl; pH 7.4, 150 mM NaCl, Triton X-100 (0.25%), 10 mM EDTA, 10 mM EGTA, 10 μM Calpain inhibitor I, 10 μM Calpain inhibitor II, and Complete Mini-tablets (1 per 7 ml), using anti-FLAG antibody (Sigma) overnight. Immune complexes were collected using protein A (Amersham) for 2 h, followed by extensive washing. Proteins were size-fractionated, transferred to nitrocellulose membranes and probed with anti-FLAG antibody (Sigma), anti-tubulin antibody (Santa Cruz), custom anti-α1C and anti-β2 antibodies (Yang et al. 2013), and phospholamban antibodies (Badrilla). Detection was performed with a CCD camera (Carestream Imaging), and ImageQuant software was used for quantification. […]

isolated cardiomyocytes = test: Fractional shortening (sarcomere length) of field-stimulated isolated cardiomyocytes; assay type: cell-based, mouse; conditions: for increase in fractional shortening: 200 nM isoproterenol with 300 nM nisoldipine, 1-Hz
Protocol: Myocytes were field stimulated at 1-Hz. Percent contraction of sarcomere length was measured using the SarcLen module of Ionoptix and calculated as the difference of shortest sarcomere length during a contraction subtracted from the relaxed sarcomere length, divided by the relaxed sarcomere length, all averaged over at least 8 contractions.
We next exploited the findings that transgenic β-less AID-mutant α1C channels are insensitive to PKA modulation to probe the specific role of CaV1.2 modulation in the positive inotropic effect of β-adrenergic agonists in both isolated cardiomyocytes and in the whole heart. […] By contrast, this response was severely diminished in cardiomyocytes expressing transgenic β-less AID-mutant α1C channels in which isoproterenol produced a relatively meager 25% increase in fractional shortening (FIG. 10B and FIG. 10C).

Question: Which results are given for `Nc1ncnc2c1nc(Br)n2C1OC2COP(O)(=S)OC2C1O` (stereo not drawn) [Rp-8-Br-cAMPS]?
Answer: inhibition of nisoldipine-resistant basal current (CaV1.2 channels [1]; transgenic AID-mutant mice cardiomyocytes): did not inhibit; reversal of isoproterenol-mediated up-regulation of endogenous CaV1.2 (CaV1.2 channels [2]): ~96%

Question: With `C=C[C@@]1(C)CC(=O)[C@]2(O)[C@@]3(C)[C@@H](O)CCC(C)(C)[C@@H]3[C@H](O)[C@H](OC(C)=O)[C@@]2(C)O1` [forskolin] as the compound, how does the “increase in whole-cell current amplitude” value (CaV1.2 channels [3]) read?
Answer: 4- to 5 fold

Question: What about the “increase of transgenic pWT α1C Ca2+ currents” value (CaV1.2 channels [1]; transgenic pWT α1C cardiomyocytes, 10 μM forskolin, 300 nM nisoldipine) of the same compound?
Answer: 1.8+0.1 fold

Question: What does the source list for `CC(C)NCC(O)c1ccc(O)c(O)c1` (stereo not drawn) [isoproterenol]?
Answer: shift of Vmid (V0.5) of steady-state activation (CaV1.2 channels [1]; GFP-WT β2b cardiomyocytes, 200 nM isoproterenol): −7.0 mV; increase of peak CaV1.2 current (CaV1.2 channels [1]; GFP-WT β2 expressing cells, 200 nM isoproterenol): 1.5±0.1 fold; shift of Vmid (V0.5) of steady-state activation (CaV1.2 channels [1]; GFP-mutant β2b cardiomyocytes, 200 nM isoproterenol): −7.5 mV; increase of peak CaV1.2 current (CaV1.2 channels [1]; GFP-mutant β2 expressing cells, 200 nM isoproterenol): 1.6±0.1 fold; shift of Vmid in the hyperpolarizing direction (CaV1.2 channels [1]; transgenic pWT α1C cardiomyocytes, 200 nM isoproterenol): 4.4 mV; increase of nisoldipine-insensitive current (CaV1.2 channels [1]; transgenic pWT α1C cardiomyocytes, 200 nM isoproterenol, 300 nM nisoldipine): 1.9±0.1 fold; increase in contractility in response to isoproterenol ([4]; control mice): 75-200%; increase in contractility in response to isoproterenol ([4]; mutant mice (CaV1.2 lacking AID)): 0-25%; increase in cardiac contractility ([4]; pWT α1C hearts): 3.3 fold; increase in cardiac contractility ([4]; β-less AID-mutant transgenic hearts): 1.2 fold; phosphorylation of phospholamban at Ser16 in response to isoproterenol (phospholamban): appropriately phosphorylated; effect on relaxation of cardiomyocytes (isolated cardiomyocytes; cardiomyocytes from both pWT and AID-mutant α1C transgenic mice): enhanced relaxation; increase in fractional shortening (isolated cardiomyocytes; transgenic pWT α1C cardiomyocytes): 100%; increase in fractional shortening (isolated cardiomyocytes; β-less AID-mutant α1C cardiomyocytes): 25%
